Laboratory results from article PMC11219860, “A chemogenetic approach for dopamine imaging with tunable sensitivity” (Nature Communications, 2024).

Tests used:
[1] = target: T1, hM4Di in VTA DA neurons (Homo sapiens, UniProt P08173, A203G/Y113C); test: Chemogenetic inhibition of VTA DA neurons with NAc dLight1.3b photometry; assay type: in vivo, mouse; details: J60 0.2 or 1 mg/kg, 10 minutes after DETQ
T1 construct: mCherry; expressed in transfected cells; host or cells: VTA dopamine neurons of DAT-IRES-cre mice, Cre-dependent AAV5
T1 sequence (P08173 whole entry Y113C/A203G): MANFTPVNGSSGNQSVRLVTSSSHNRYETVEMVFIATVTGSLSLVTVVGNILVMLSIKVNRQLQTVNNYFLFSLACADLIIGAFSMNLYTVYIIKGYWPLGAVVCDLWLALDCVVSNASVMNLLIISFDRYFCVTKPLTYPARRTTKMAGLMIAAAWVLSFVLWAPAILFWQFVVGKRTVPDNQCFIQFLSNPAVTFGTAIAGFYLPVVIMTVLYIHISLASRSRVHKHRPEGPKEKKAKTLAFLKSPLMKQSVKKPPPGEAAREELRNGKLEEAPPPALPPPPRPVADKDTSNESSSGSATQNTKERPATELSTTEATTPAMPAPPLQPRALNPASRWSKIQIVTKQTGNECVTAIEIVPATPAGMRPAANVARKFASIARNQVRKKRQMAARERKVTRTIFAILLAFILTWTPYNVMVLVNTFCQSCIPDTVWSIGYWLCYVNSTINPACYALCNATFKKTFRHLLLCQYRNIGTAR
Procedure: Fiber photometry combined with optogenetics was conducted using a RZ10X LUX-I/O Processor with integrated LEDs (Tucker-Davis Technologies) combined with a filter/mirror minicube set (FMC6_IE(400-410)_E1(467-497)_F1(507-554)_E2(566-586)_F2(600-680)_S) (Doric Lenses). […] Low-autofluorescence patch cords (400 µm/0.57 NA, Doric) were attached to the optic fibers (400 µm/0.66 NA, Doric) on the mouse’s head to collect fluorescence emissions. Signals were filtered through 500–540 nm GFP emission filters coupled to a photodetector on the RZ10X. […] Data were sampled at 1017.3 Hz. […] DA release was measured with fiber photometry. […] After each injection, NAc DA axons were optically (opto) activated across 3 trials (2 s, 20 Hz, 20-ms pulses) every 5 min and DA released measured with fiber photometry. […] After each injection, NAc DA axons were optically (opto) inhibited (10 s, continuous trials) every 3 min (8 trials/condition) and DA released measured with fiber photometry. […] DA release was measured with fiber photometry.
For long-term recordings during optogenetic stimulation or chemogenetic inhibition linear fit was calculated across the entire recording or across the vehicle epoch; for event-related experiments fit was performed on fluorescent data obtained in the −60 to +60 s around opto events or −5 to −1 s around behavioral events. […]

[2] = ref Svensson et al 2019; Meltzer et al., 2019; Rajagopal et al., 2024; cited from earlier work
[3] = system: NAc DRD1-MSNs; test: Footshock-induced NAc DRD1-MSN activity (jGCaMP8m photometry); details: DETQ 10 mg/kg; SCH-23390 0.1 mg/kg i.p.
Procedure: Cue-reward paradigm (NAc recordings) was carried out in an operant chamber within a sound-attenuating box with low red light illumination (30 Lux). […] During the next session mice were trained to initiate reward delivery via licking. […] During expert sessions CS-US pairings were repeated 20 times per session ( ~ 30 min for each session). Mice underwent a total of 12 sessions for cue-reward learning. 10 minutes before each session drugs were injected i.p. […] The rewards were delivered from 10 to 40 min post vehicle or DETQ injection. Chambers and lick ports were sanitized with ethanol between mice. For all sessions, lick data and photometry recordings were simultaneously obtained; licking behaviour was detected by a capacity-based sensor. Latency to reward-anticipatory licking was calculated as the time between the CS and lick onset. The lick proportion was calculated as the percent time mice spent licking during CS presentation divided by the percent time mice spent licking during the rest of the session (without CS). […] Fiber photometry recordings were analyzed using custom-written Matlab scripts. […] Change in fluorescence, ΔF/F0 (%), was defined as (F-F0)/F0 x 100, where F represents the fluorescent signal (465-nm) at each time point. F0 was calculated by applying a least-squares linear fit (polyfit) to the 405-nm signal to align with the 465-nm signal. […]

[4] = target: T2, mouse DA transporter (DAT) (Mus musculus, UniProt Q61327); test: Fast-scan cyclic voltammetry of DA release in striatal slices; details: bath application: DETQ 200 nM; cocaine 5 µM
T2 construct: Lack of DETQ effect on the endogenous DA transporter; from tissue; host or cells: mouse striatal brain slices
T2 sequence (Q61327 whole entry): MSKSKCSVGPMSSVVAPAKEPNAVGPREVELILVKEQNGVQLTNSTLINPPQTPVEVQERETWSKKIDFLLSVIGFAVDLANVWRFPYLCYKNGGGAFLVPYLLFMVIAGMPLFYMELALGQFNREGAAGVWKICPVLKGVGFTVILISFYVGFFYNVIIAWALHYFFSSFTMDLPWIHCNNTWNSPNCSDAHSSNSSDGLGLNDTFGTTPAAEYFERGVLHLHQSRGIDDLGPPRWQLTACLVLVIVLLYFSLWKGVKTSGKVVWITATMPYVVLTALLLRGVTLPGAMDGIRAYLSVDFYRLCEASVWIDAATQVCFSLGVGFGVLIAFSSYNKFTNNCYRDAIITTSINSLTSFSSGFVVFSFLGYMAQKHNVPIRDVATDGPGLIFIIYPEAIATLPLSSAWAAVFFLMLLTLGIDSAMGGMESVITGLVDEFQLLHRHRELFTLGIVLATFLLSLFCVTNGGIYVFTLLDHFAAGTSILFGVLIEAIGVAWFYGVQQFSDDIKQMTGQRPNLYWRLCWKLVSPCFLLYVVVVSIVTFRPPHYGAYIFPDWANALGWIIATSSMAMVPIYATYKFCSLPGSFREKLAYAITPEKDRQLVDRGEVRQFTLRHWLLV
Procedure: Striatal DA release was measured using fast-scan cyclic voltammetry (FSCV) with a carbon fiber electrode (CFE; diameter 7 µm, length 50–100 µm) positioned approximately 100 µm below the surface of the slice. The CFE was scanned across a triangular waveform (−0.4 to +1.3 V, 400 V/s) at 10 Hz, and DA release was evoked by single-pulse electrical stimulation (30 µA, 0.5 ms) with an inter-stimulus interval of 180 s. DA release was evoked in the presence of DHBE (1 µM) to block nicotinic acetylcholine receptors. Peak background-subtracted DA oxidation current was measured at +0.6 V, and drugs were washed on after establishing a stable baseline.

[5] = system: dLight1.3b; test: In vivo photometry of optogenetically-evoked DA release in PFC; design: species or system mouse; details: cocaine 20 mg/kg after DETQ 10 mg/kg
Procedure: (§1) Fiber photometry combined with optogenetics was conducted using a RZ10X LUX-I/O Processor with integrated LEDs (Tucker-Davis Technologies) combined with a filter/mirror minicube set (FMC6_IE(400-410)_E1(467-497)_F1(507-554)_E2(566-586)_F2(600-680)_S) (Doric Lenses). […] Low-autofluorescence patch cords (400 µm/0.57 NA, Doric) were attached to the optic fibers (400 µm/0.66 NA, Doric) on the mouse’s head to collect fluorescence emissions. Signals were filtered through 500–540 nm GFP emission filters coupled to a photodetector on the RZ10X. […] Data were sampled at 1017.3 Hz. […] For optogenetic stimulation, a 635 nm LED was passed through the 580–680 nm minicube F2 port and reached the mouse through the same unique optic fiber; the LED was driven at 1 to 3 mW. To determine the ‘temporal window for stable imaging’ in the PFC using dLight1.3b recordings, DAT^IREScre mice expressing ChrimsonR in VTA DA axons and dLight1.3b in the PFC were injected i.p. with vehicle at 0 min, followed by DETQ (10 mg/kg) 25 min later. After each injection, PFC DA axons were optically (opto) activated across 5 trials (2 s, 20 Hz, 20-ms pulses) for the vehicle (20 min) and 19 trials for DETQ (1h05 min) every 5 min. DA release was measured with fiber photometry. In another session, the same mice were injected with Veh, then DETQ (10 mg/kg) 20 min later, then cocaine (20 mg/kg) 25 min later, and the same optogenetic protocol was applied (2 s, 20 Hz, 20-ms pulses every 5 min). For optogenetic validation of AlloLite-ctr in the NAc, DAT^IREScre mice expressing ChrimsonR in VTA DA axons were injected i.p. with vehicle (Day 1) or DETQ (10 mg/kg) (Day 8) at 0 min, followed by cocaine (20 mg/kg) 20 min later. After each injection, NAc DA axons were optically (opto) activated across 3 trials (2 s, 20 Hz, 20-ms pulses) every 5 min and DA released measured with fiber photometry. […] After each injection, NAc DA axons were optically (opto) inhibited (10 s, continuous trials) every 3 min (8 trials/condition) and DA released measured with fiber photometry. […] DA release was measured with fiber photometry.
For long-term recordings during optogenetic stimulation or chemogenetic inhibition linear fit was calculated across the entire recording or across the vehicle epoch; for event-related experiments fit was performed on fluorescent data obtained in the −60 to +60 s around opto events or −5 to −1 s around behavioral events. […] DA event-related responses were quantified by computing the value at the transient’s peak value and the AUC in the 0 to 10 s or 0 to 60 s period post-event onset. […] The maximal peak value of Veh-normalized ΔF/F0 after opto-onset was plotted over time and the plateau of maximal response was determined by averaging peak opto responses 5, 10, 15 and 20 min post-DETQ. […]

[6] = Open field behavior; assay type: in vivo, mouse; details: untethered mice, 45 min; DETQ 3, 10, 30 mg/kg i.p.; cocaine 20 mg/kg
Procedure: For combined locomotion/photometry experiments in the open field (OF) in tethered mice, a 50 × 50 cm arena was used. Fiber photometry was conducted using a Doric photometry rig combined with a filter/mirror minicube set (Doric Lenses), as above. […] Data were sampled at 122 Hz. […] Mice were habituated to the chamber for 3 consecutive days (30 minutes per day). On experimental days, locomotor activity was video recorded and synchronized with fiber photometry signal recording. The baseline DA signal was recorded for 20 minutes, then the mouse received i.p. injection of vehicle or DETQ (10 mg/kg) in interleaved sessions. Following injection, the DA signal was recorded for an additional 90 minutes. The OF chamber was cleaned with ethanol and water between mice. Recording sessions were repeated at 48 hours intervals. Mouse behavior as well as photometry signals were analyzed with a custom-written MATLAB script. Mouse locomotion was computed using the body center point of the animal. The center zone of the arena was defined automatically during behavior data analysis as the 25 × 25 cm square with the central point aligned to the center of the open field. The distance moved and time spent in the center zone were quantified in 10 minutes time bins and as the total during the 90 minutes after ip injections. To test the dose-dependent effects of DETQ on locomotion in untethered mice, mice were injected i.p. with vehicle, DETQ (3, 10 or 30 mg/kg) or cocaine (20 mg/kg) while their locomotor activity was recorded in an OF arena (60 x 60 cm) for 45 min. Videos were recorded with a Logitech C270 camera and analyzed with DeepLabCut (version 2.1.8.2)[84] on an existing open field network. Representative traces were generated with the Anymaze (v7.2) software (Stoelting Co.).

[7] = system: AlloLite-ctr; test: In vivo photometry of AlloLite-ctr in NAc; design: species or system mouse; details: cocaine 20 mg/kg
Procedure: as §1, with “After each injection, PFC DA axons were optically (opto) activated across 5 trials (2 s, 20 Hz, 20-ms pulses) for the vehicle (20 min) and 19 trials for DETQ (1h05 min) every 5 min.” left out, “In another session, the same mice were injected with Veh, then DETQ (10 mg/kg) 20 min later, then cocaine (20 mg/kg) 25 min later, and the same optogenetic protocol was applied (2 s, 20 Hz, 20-ms pulses every 5 min). For optogenetic validation of AlloLite-ctr in the NAc, DAT^IREScre mice expressing ChrimsonR in VTA DA axons were injected i.p. with vehicle (Day 1) or DETQ (10 mg/kg) (Day 8) at 0 min, followed by cocaine (20 mg/kg) 20 min later.” left out
For long-term recordings during optogenetic stimulation or chemogenetic inhibition linear fit was calculated across the entire recording or across the vehicle epoch; for event-related experiments fit was performed on fluorescent data obtained in the −60 to +60 s around opto events or −5 to −1 s around behavioral events. […] DA event-related responses were quantified by computing the value at the transient’s peak value and the AUC in the 0 to 10 s or 0 to 60 s period post-event onset. […]

Question: Which “step-like increase in dLight1.3b baseline signal observed with DETQ” value [1] does the source give for `CCN1CCN(C2=Nc3cc(Cl)ccc3Nc3c(F)cccc32)CC1` [J60] here?
Answer: dose-dependently decreased

Question: Which “behavioral effect of DETQ in hD1 mice” value [2] does the source give for `CN1CCc2cc(Cl)c(O)cc2[C@@H](c2ccccc2)C1` [SCH-23390] here?
Answer: blocked

Question: What about the “footshock-induced activity in NAc DRD1-MSNs” value [3] of the same compound?
Answer: reduces

Question: Which results are given for `COC(=O)[C@H]1[C@@H](OC(=O)c2ccccc2)C[C@@H]2CC[C@H]1N2C` [cocaine]?
Answer: decay constant (tau) of DA signals [4]: slowed the decay; peak DA release [4]: significantly increased; baseline fluorescence of the sensor after DETQ [5]: further boosted; locomotion in open field [6]: increase; decay time of opto-evoked DA peaks [7]: increased decay time
